Laboratory results reported in patent US12479827B2, “Heteroaromatic carboxamide derivatives as plasma kallikrein inhibitors” (Boehringer Ingelheim International GmbH, priority 2020, dated 2025).

Experiments:
Human PKK = target: T1, Human PKK (Homo sapiens, UniProt P03952); assay: Inhibition of PKK using an endpoint assay (human PKK); type: biochemical; details: fluorogenic substrate H-Pro-Phe-Arg-AMC, 1 h room temperature, method names human or rat PKK, table does not say which
T1 construct: purchased Enzyme Research Laboratories
Outline: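 Human PKK inhibition measured in 100 mM Tris, 150 mM NaCl, pH 7.8, 0.1% BSA, 0.05% Tween20, 1% DMSO. Endpoint format: reaction stopped with PPACK II at 1 μM final, fluorescence read at 355 nm excitation/460 nm emission.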

[1] = target: T2, PKK in kaolin activated human platelet poor plasma (Homo sapiens, UniProt P03952); assay: Inhibition of PKK in kaolin activated human PPP; type: biochemical; details: 25-750 μg/mL kaolin, global fit, text b200 calls the values IC90;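 also: readout is the rate of fluorogenic substrate cleavage in rfu per min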
T2 construct: Platelet poor plasma (PPP) obtained from human wholeblood; from tissue
Experimental: Platelet poor plasma (PPP) obtained from human wholeblood, anticoagulated with Na-Citrate, is incubated with various concentrations of the test compound together with either 25, 75, 250, or 750 μg/mL kaolin in assay buffer for 20 min at 37° C. such that for each kaolin dose used a concentration response is obtained for the test compound.

T2 sequence (P03952 391-638 limits assumed): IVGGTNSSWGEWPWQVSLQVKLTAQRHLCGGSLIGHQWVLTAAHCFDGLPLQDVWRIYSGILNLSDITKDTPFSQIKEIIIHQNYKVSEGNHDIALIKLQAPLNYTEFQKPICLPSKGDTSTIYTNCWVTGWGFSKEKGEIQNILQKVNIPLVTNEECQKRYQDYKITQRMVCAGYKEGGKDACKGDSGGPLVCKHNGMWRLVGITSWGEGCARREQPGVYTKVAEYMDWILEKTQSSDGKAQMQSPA
T2 sequence (P03952 20-390 limits assumed): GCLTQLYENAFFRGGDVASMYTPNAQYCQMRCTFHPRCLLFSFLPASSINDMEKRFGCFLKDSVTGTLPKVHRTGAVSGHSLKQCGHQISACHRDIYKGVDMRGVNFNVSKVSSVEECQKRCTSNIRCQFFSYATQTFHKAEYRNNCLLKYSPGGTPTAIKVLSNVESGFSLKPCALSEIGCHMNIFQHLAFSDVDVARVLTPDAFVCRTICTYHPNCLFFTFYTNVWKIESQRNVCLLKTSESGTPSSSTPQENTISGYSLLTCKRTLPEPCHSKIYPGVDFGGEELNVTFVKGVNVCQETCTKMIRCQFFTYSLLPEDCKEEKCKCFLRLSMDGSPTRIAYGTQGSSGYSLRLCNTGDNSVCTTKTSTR
T1 sequence (P03952 20-390 limits assumed): as above
T1 sequence (P03952 391-638 limits assumed): as the sequence (P03952 391-638 limits assumed) above

Compound	IC50 (Human PKK) [µM]	IC50 [1] [µM]
Cc1nc(N2CC3CC3C2)ccc1Cc1ncc(C(=O)N[C@@H]2CCc3c2ncn3C)o1 (stereo partly drawn) [Example 154, 2-[(6-{3-Azabicyclo[3.1.0]hexan-3-yl}-2-methylpyridin-3-yl)methyl]-N-[(4R)-1-methyl-1H,4H,5H,6H-cyclopenta[d]imidazol-4-yl]-1,3-oxazole-5-carboxamide]	0.0099	4.27
Cc1nc(N2CC3C(C2)C3(F)F)ccc1Cc1ncc(C(=O)N[C@@H]2CCc3c2ncn3C)o1 (stereo partly drawn) [Example 155, 2-[(6-{6,6-Difluoro-3-azabicyclo[3.1.0]hexan-3-yl}-2-methylpyridin-3-yl)methyl]-N-[(4R)-1-methyl-1H,4H,5H,6H-cyclopenta[d]imidazol-4-yl]-1,3-oxazole-5-carboxamide]	0.0154	4.1
CCc1nc(N2CC3CC3C2)ccc1Cc1ncc(C(=O)N[C@@H]2CCc3c2ncn3C)o1 (stereo partly drawn) [Example 158, 2-[(6-{3-Azabicyclo[3.1.0]hexan-3-yl}-2-ethylpyridin-3-yl)methyl]-N-[(4R)-1-methyl-1H,4H,5H,6H-cyclopenta[d]imidazol-4-yl]-1,3-oxazole-5-carboxamide]	0.0046	2.1
Cn1cnc2c1CC[C@H]2NC(=O)c1c[nH]c(Cc2ccc(N3CC4C(C3)C4(F)F)nc2Cl)c1 (stereo partly drawn) [Example 159, 5-[(2-Chloro-6-{6,6-difluoro-3-azabicyclo-[3.1.0]hexan-3-yl}pyridin-3-yl)methyl]-N-[(4R)-1-methyl-1H,4H,5H,6H-cyclopenta[d]imidazol-4-yl]-1H-pyrrole-3-carboxamide]	0.0035	1.14
CCc1nc(N2CC3C(C2)C3(F)F)ccc1Cc1cc(C(=O)N[C@@H]2CCc3c2ncn3C)n(C(C)C)n1 (stereo partly drawn) [Example 160, 3-[(6-{6,6-Difluoro-3-azabicyclo[3.1.0]hexan-3-yl}-2-ethylpyridin-3-yl)methyl]-N-[(4R)-1-methyl-1H,4H,5H,6H-cyclopenta[d]imidazol-4-yl]-1-(propan-2-yl)-1H-pyrazole-5-carboxamide]	0.0022	0.967
CCc1nc(N2CC3C(C2)C3(F)F)ccc1Cc1cc(C(=O)N[C@@H]2CCc3c2ncn3C)n(CC)n1 (stereo partly drawn) [Example 161, 3-[(6-{6,6-Difluoro-3-azabicyclo[3.1.0]hexan-3-yl}-2-ethylpyridin-3-yl)methyl]-1-ethyl-N-[(4R)-1-methyl-1H,4H,5H,6H-cyclopenta[d]imidazol-4-yl]-1H-pyrazole-5-carboxamide]	0.0015	0.431
CCc1nc(N2CC3CC3C2)ccc1Cc1cc(C(=O)N[C@@H]2CCc3c2ncn3C)n(CC)n1 (stereo partly drawn) [Example 162, 3-[(6-{3-Azabicyclo[3.1.0]hexan-3-yl}-2-ethylpyridin-3-yl)methyl]-1-ethyl-N-[(4R)-1-methyl-1H,4H,5H,6H-cyclopenta[d]imidazol-4-yl]-1H-pyrazole-5-carboxamide]	0.0011	0.231
Cc1nc(N2CC3CC3C2)ccc1Cc1cc(C(=O)N[C@@H]2CCc3c2ncn3C)n(C)n1 (stereo partly drawn) [Example 168, 3-[(6-{3-Azabicyclo[3.1.0]hexan-3-yl}-2-methylpyridin-3-yl)methyl]-1-methyl-N-[(4R)-1-methyl-1H,4H,5H,6H-cyclopenta[d]imidazol-4-yl]-1H-pyrazole-5-carboxamide]	0.0015	1.86
Cc1nc(N2CC3CC3C2)ncc1Cn1cc(C(=O)N[C@@H]2CCc3c2ncn3C)c2cncnc21 (stereo partly drawn) [Example 174, 7-[(2-{3-Azabicyclo[3.1.0]hexan-3-yl}-4-methylpyrimidin-5-yl)methyl]-N-[(4R)-1-methyl-1H,4H,5H,6H-cyclopenta[d]imidazol-4-yl]-7H-pyrrolo[2,3-d]pyrimidine-5-carboxamide]	0.0019	1.43
CCOCc1nc(N2CC3C(C2)C3(F)F)ccc1Cn1cc(C(=O)N[C@@H]2CCc3c2ncn3C)cn1 (stereo partly drawn) [Example 179, 1-[(6-{6,6-Difluoro-3-azabicyclo[3.1.0]hexan-3-yl}-2-(ethoxymethyl)pyridin-3-yl)methyl]-N-[(4R)-1-methyl-1H,4H,5H,6H-cyclopenta[d]imidazol-4-yl]-1H-pyrazole-4-carboxamide]	0.0042	0.389
COCc1nc(N2CC3CC3C2)ccc1Cn1cnc(C(=O)N[C@@H]2CCc3c2ncn3C)c1 (stereo partly drawn) [Example 180, 1-[(6-{3-Azabicyclo[3.1.0]hexan-3-yl}-2-(methoxymethyl)pyridin-3-yl)methyl]-N-[(4R)-1-methyl-1H,4H,5H,6H-cyclopenta[d]imidazol-4-yl]-1H-imidazole-4-carboxamide]	0.0026	0.207
Cc1nc(N2CC3CC3C2)ccc1Cc1cc(C(=O)N[C@@H]2CCc3c2ncn3C)co1 (stereo partly drawn) [Example 182, 5-[(6-{3-Azabicyclo[3.1.0]hexan-3-yl}-2-methylpyridin-3-yl)methyl]-N-[(4R)-1-methyl-1H,4H,5H,6H-cyclopenta[d]imidazol-4-yl]furan-3-carboxamide]	0.0071	6.27
CCc1nc(N2CC3C(C2)C3(F)F)ccc1Cc1ccc(C(=O)N[C@@H]2CCc3c2ncn3C)s1 (stereo partly drawn) [Example 184, 5-[(6-{6,6-Difluoro-3-azabicyclo[3.1.0]hexan-3-yl}-2-ethylpyridin-3-yl)methyl]-N-[(4R)-1-methyl-1H,4H,5H,6H-cyclopenta[d]imidazol-4-yl]thiophene-2-carboxamide]	0.0135	2.31

Second part, the molecule after the results:

IC50 (Human PKK) [µM]	IC50 [1] [µM]	Compound
0.0016	0.511	Cn1cnc2c1CC[C@H]2NC(=O)c1cc(Cc2ccc(N3CC4CC4C3)nc2CO)no1 (stereo partly drawn) [Example 149, 3-[(6-{3-Azabicyclo[3.1.0]hexan-3-yl}-2-(hydroxymethyl)pyridin-3-yl)methyl]-N-[(4R)-1-methyl-1H,4H,5H,6H-cyclopenta[d]imidazol-4-yl]-1,2-oxazole-5-carboxamide]
0.001	0.373	Cn1cnc2c1CC[C@H]2NC(=O)c1cc(Cc2ccc(N3CC4C(C3)C4(F)F)nc2Cl)no1 (stereo partly drawn) [Example 150, 3-[(2-Chloro-6-{6,6-difluoro-3-azabicyclo[3.1.0]hexan-3-yl}pyridin-3-yl)methyl]-N-[(4R)-1-methyl-1H,4H,5H,6H-cyclopenta-[d]imidazol-4-yl]-1,2-oxazole-5-carboxamide]
0.0036	1.14	Cn1cnc2c1CC[C@H]2NC(=O)c1cc(Cc2ccc(N3CC4CC4C3)nc2)no1 (stereo partly drawn) [Example 151, 3-[(6-{3-Azabicyclo[3.1.0]hexan-3-yl}pyridin-3-yl)methyl]-N-[(4R)-1-methyl-1H,4H,5H,6H-cyclopenta[d]imidazol-4-yl]-1,2-oxazole-5-carboxamide]
0.0012	0.43	Cc1nc(N2CC3C(C2)C3(F)F)ccc1Cc1cc(C(=O)N[C@@H]2CCc3c2ncn3C)on1 (stereo partly drawn) [Example 152, 3-[(6-{6,6-Difluoro-3-azabicyclo[3.1.0]hexan-3-yl}-2-methylpyridin-3-yl)methyl]-N-[(4R)-1-methyl-1H,4H,5H,6H-cyclopenta[d]imidazol-4-yl]-1,2-oxazole-5-carboxamide]
0.0005	0.28	CCc1nc(N2CC3C(C2)C3(F)F)ccc1Cc1cc(C(=O)N[C@@H]2CCc3c2ncn3C)on1 (stereo partly drawn) [Example 153, 3-[(6-{6,6-Difluoro-3-azabicyclo[3.1.0]hexan-3-yl}-2-ethylpyridin-3-yl)methyl]-N-[(4R)-1-methyl-1H,4H,5H,6H-cyclopenta[d]imidazol-4-yl]-1,2-oxazole-5-carboxamide]
0.0022	0.47	CCn1nc(Cc2ccc(N3CC4C(C3)C4(F)F)nc2C)cc1C(=O)N[C@@H]1CCc2c1ncn2C (stereo partly drawn) [Example 163, 3-[(6-{6,6-Difluoro-3-azabicyclo[3.1.0]hexan-3-yl}-2-methylpyridin-3-yl)methyl]-1-ethyl-N-[(4R)-1-methyl-1H,4H,5H,6H-cyclopenta[d]imidazol-4-yl]-1H-pyrazole-5-carboxamide]
0.0018	0.443	CCn1nc(Cc2ccc(N3CC4CC4C3)nc2C)cc1C(=O)N[C@@H]1CCc2c1ncn2C (stereo partly drawn) [Example 164, 3-[(6-{3-Azabicyclo[3.1.0]hexan-3-yl}-2-methylpyridin-3-yl)methyl]-1-ethyl-N-[(4R)-1-methyl-1H,4H,5H,6H-cyclopenta[d]imidazol-4-yl]-1H-pyrazole-5-carboxamide]
0.0008	0.342	CCc1nc(N2CC3CC3C2)ccc1Cc1cc(C(=O)N[C@@H]2CCc3c2ncn3C)[nH]n1 (stereo partly drawn) [Example 165, 3-[(6-{3-Azabicyclo[3.1.0]hexan-3-yl}-2-ethylpyridin-3-yl)methyl]-N-[(4R)-1-methyl-1H,4H,5H,6H-cyclopenta[d]imidazol-4-yl]-1H-pyrazole-5-carboxamide]
0.001	0.193	CCc1nc(N2CC3CC3C2)ccc1Cc1cc(C(=O)N[C@@H]2CCc3c2ncn3C)n(C)n1 (stereo partly drawn) [Example 166, 3-[(6-{3-Azabicyclo[3.1.0]hexan-3-yl}-2-ethylpyridin-3-yl)methyl]-1-methyl-N-[(4R)-1-methyl-1H,4H,5H,6H-cyclopenta[d]imidazol-4-yl]-1H-pyrazole-5-carboxamide]
0.0013	0.272	Cc1nc(N2CC3C(C2)C3(F)F)ccc1Cc1cc(C(=O)N[C@@H]2CCc3c2ncn3C)n(C)n1 (stereo partly drawn) [Example 167, 3-[(6-{6,6-Difluoro-3-azabicyclo[3.1.0]hexan-3-yl}-2-methylpyridin-3-yl)methyl]-1-methyl-N-[(4R)-1-methyl-1H,4H,5H,6H-cyclopenta-[d]imidazol-4-yl]-1H-pyrazole-5-carboxamide]
